In patent publication US8741955B2, “D-serine transporter inhibitors as pharmaceutical compositions for the treatment of central nervous system disorders” (Allergan, Inc., priority 2011, dated 2014):

Legend:
[1] = test system: NMDA receptor-mediated excitatory postsynaptic currents (EPSCNMDA); test: electrophysiological recording of NMDA receptor-mediated EPSCs in rat hippocampal slices
Protocol: […] thick hippocampal slices were prepared from […] rats using Leica VT1000S-microtome. Slices were perfused with ACSF containing: 121 mM NaCl, 2.5 mM KCl, 2.0 mM Mg2SO4, 2.0 CaCl2, 1 mM NaH2PO4, 26.2 NaHCO3, and 11 mM glucose, which was equilibrated with 5% CO2/95% O2. Experiments were performed in a recording chamber on the stage of an Olympus BX-61wi microscope with infrared DIC optics for visualizing whole-cell patch-clamp recordings. EPSPs were recorded from CA1 pyramidal neurons by stimulating the Schaffer collateral-commissural pathway using a bipolar tungsten electrode. The recording pipettes were filled with regular ICM containing: 120 mM Cs-gluconate, 5 mM NaCl, 10 mM KCl, 0.1 mM CaCl2, 1 mM EGTA, 2 mM MgCl2, 10 mM HEPES, 2 mM Na-ATP, 2 mM Na2-phosphocreatine, and 0.25 mM Na-GTP, pH 7.3 (290 mOsm).
To measure NMDA-mediated EPSCs, extracellular Mg2SO4 was lowered to 0.2 mM and 2 μM NBQX and 100 μM picrotoxin were added in the ACSF. 1 μM 7-CKY (7-chlorokynurenic acid) was added to improve the sensitivity of […] to D-serine.

[2] = test system: rat hippocampal astrocytes; test: [3H]D-serine transport into primary cultures of rat hippocampal astrocytes; assay type: cell-based; settings: Astrocyte; inhibition of [3H]D-serine transport, rat hippocampal astrocytes; means of at least two determinations
human ASCT1 = molecular target: T1, human ASCT1 (Homo sapiens, UniProt P43007); test: transport into HEK cells expressing ASCT1; assay type: cell-based
T1 construct: expressed in transfected cells; host or cells: HEK (human embryonic kidney) cells
T1 sequence (P43007 1-532): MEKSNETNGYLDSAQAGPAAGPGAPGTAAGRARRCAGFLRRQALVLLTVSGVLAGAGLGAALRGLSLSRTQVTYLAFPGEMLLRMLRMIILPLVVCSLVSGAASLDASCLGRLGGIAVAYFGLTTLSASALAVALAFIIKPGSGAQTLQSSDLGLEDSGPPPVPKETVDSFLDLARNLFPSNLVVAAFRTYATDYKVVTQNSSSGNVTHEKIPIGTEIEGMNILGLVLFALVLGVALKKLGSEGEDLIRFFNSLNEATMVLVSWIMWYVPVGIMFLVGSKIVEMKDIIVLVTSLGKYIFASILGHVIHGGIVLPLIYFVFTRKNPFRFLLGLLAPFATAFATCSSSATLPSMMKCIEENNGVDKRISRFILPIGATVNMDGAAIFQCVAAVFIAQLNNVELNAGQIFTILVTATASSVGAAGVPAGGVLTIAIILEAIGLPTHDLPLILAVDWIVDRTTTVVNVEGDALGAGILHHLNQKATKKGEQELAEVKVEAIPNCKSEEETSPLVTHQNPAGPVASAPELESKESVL
Protocol: Cell-based assays: the transport of [^3H]L- or D-serine was measured in primary cultures of rat hippocampal astrocytes or in human embryonic kidney (HEK) cells expressing ASCT transporter sub-types. For the astrocyte assays, cells were plated on either 24- or 96-well plates at a density of 50,000 cells per well. For the HEK assays, cells were plated on coated 96-well plates at a density of 80,000 cells/well. Assays were conducted in duplicate at room temperature in assay buffer consisting of: NaCl: 150 mM, KCl: 2 mM; MgCl2: 1 mM; CaCl2: 1 mM; HEPES: Tris buffer: 10 mM, pH7.4. To assess the sodium-dependence of transport, NaCl was replaced in the assay buffer by equimolar choline chloride. Following aspiration of growth medium and 2 washes with assay buffer, cells were incubated with [^3H]L- or D-serine at a final concentration of 1 μM for 5 min (astrocytes) or 1 min (HEK cells), after which the incubation medium was aspirated and the cells washed twice with ice-cold assay buffer. Cells containing radiolabel were solubilized in 100 μl of 1% Triton-X100 and an aliquot counted in a beta counter. IC50 values were determined over a range of at least 6 concentrations and derived from curve-fitting algorithms available in GraphPad Prism 4.

Row | Compound | percentage increase in the amplitude of EPSCNMDA ([1]; 1000 μM, in presence of 1 μM 7-CKY, representative experiment) [%] | duration of potentiation of EPSCNMDA ([1]; 1000 μM, representative experiment) | effect on NMDA receptor mediated EPSCs in CA1 region of the hippocampus ([1]; rat hippocampal slice) | IC50 [2] [µM] | inhibition of [3H]L-serine transport in ASCT1-expressing HEK cells (human ASCT1) | transport of [3H]D-serine into ASCT1-expressing HEK cells (substrate) (human ASCT1; with and without extracellular sodium)
1 | N[C@H](C(=O)O)c1ccc(O)cc1 [L-4-hydroxyphenylglycine] | 22 | lasted for one hour and then returned to baseline in control buffer | potentiated NMDA receptor mediated excitatory post-synaptic currents | – | – | –
2 | N[C@H](CO)C(=O)O [D-serine] | – | – | – | 1580 | completely inhibited | transported into ASCT1-expressing HEK cells in a sodium-dependent manner
